# Measurements taken from patent US11440880B2, “Thalidomide analogs and methods of use” (The USA, as represented by the Secretary, Department of …, priority 2015, dated 2022).
# Entries after “also recorded” stand apart in the source; their conditions may differ.
# Columns and labels:
# WT zebrafish embryos = assay: WT zebrafish embryo development / teratogenicity; format: in vivo, zebrafish (Danio rerio); conditions: in words; at concentrations active in fli1:EGFP or mpo:GFP assays
# Text: To determine the effects of the candidate compounds on embryonic development, two in vivo model systems (developing zebrafish and chicken embryos) were utilized.
# Malformations in the development of the zebrafish embryo were noted, including inhibition of eye, otic vesicle and fin development (FIGS. 7A-7F). […] Embryos were screened at concentrations previously determined, in this study, to be anti-angiogenic or anti-inflammatory in the fli1:EGFP and mpo:GFP assays respectively.
# (§1) Concentrations used in the WT zebrafish and chicken embryo assays to assess for teratogenesis, were equal to or higher than those utilized in the fil1:EGFP and mpo:GFP zebrafish assays
# chicken embryos = assay: Chicken embryo development / teratogenicity; format: in vivo, white leghorn chicken; conditions: in words; applied at HH stage 17-18
# Protocol: Chicken Embryology: Fertilized white leghorn chicken embryos were incubated at 38° C. and staged according to Hamburger and Hamilton (HH) stages of development (1951). Embryos were tested at HH stage 17-18 (day 2.5). Following membrane removal, test compounds or vehicle control solutions were applied globally over the embryo. The eggs were sealed and the development of the embryos was monitored up to HH stage 30 (E9).
# Compounds of interest were screened in chicken embryos (FIGS. 7I-7P).
# as §1
# [1] = tested on: rat aortic rings (microvessel outgrowth); assay: Rat aortic ring assay of angiogenesis; format: cell-based, Sprague Dawley rats; conditions: 50 μM, 5 days
# Protocol: Matrigel® matrix (BD Biosciences) was defrosted overnight on ice. The wells of a 24 well plate were coated with 300 μL of the gel using frozen pipette tips. The gel was left to set at room temperature. When required, six week old male Sprague Dawley rats were euthanized by CO2 and decapitation. The blood was drained from the tissue and the descending aorta dissected. The aorta was cleaned in EBM media, the over lying fascia removed, and the tissue was sliced into 1-mm sections using a sterile scalpel and tweezers. The sections were rinsed in clean EBM then placed onto the coagulated gel. Another 300 μL of Matrigel® matrix was pipetted onto the ring and left to set for 30 minutes. EGM™-II endothelial growth medium (500 μL) was added to each well. The rings were incubated overnight at 37° C. The next day the media was removed and replaced with EBM containing compounds (50 μM) or media. TNP-470 ((Chloracetyl) carbamic acid (3R,4S,5S,6R)-5-methoxy-4-[(2R,3R)-2-methyl-3-(3-methyl-2-butenyl)oxiranyl]-1-oxaspiro[2.5]oct-6-yl ester) was used as a positive control. The rings were incubated in the compounds for 5 days. On day 5 the rings were imaged using an EVOS™ scope. The vessel outgrowth was quantified by binary conversion in Image J open-source image processing software and average outgrowth calculated (FIG. 9).
compound,measurement,setting,value
"Nc1cccc2c1CN(C13CC4CC(CC(C4)C1)C3)C2=O [Compound 77, 2,3-Dihydro-4-amino-2-(tricyclo[3.3.1.1^3,7]dec-1-yl)-1H-isoindol-1-one]",effect on development / mortality of zebrafish embryos,WT zebrafish embryos,no apparent effect on the development of the zebrafish embryo
CC(N1Cc2c(N)cccc2C1=O)C12CC3CC(CC(C3)C1)C2 (stereo not drawn) [Compound 81],effect on development / mortality of chicken embryos,chicken embryos,hemorrhaging throughout the body and head; also recorded: growth reduction and hemorrhaging throughout the head
"O=C1c2ccccc2CN1C12CC3CC(CC(O)(C3)C1)C2 [Compound 86, 2,3-Dihydro-2-(tricyclo[3.3.1.1^3,7]dec-1-hydroxy-3-yl)-1H-isoindol-1-one]",microvessel outgrowth,[1],17.3%
